Assay: Standing of the crystalline form at room temperature (polymorph stability)
Assay type: physicochemical
Conditions: standing at the condition of room temperature for one week; monohydrochloride

Row | Structure (SMILES) | stability of the crystalline form (polymorphic conversion)
1 | CCCn1cc(C)c2c(=O)[nH]c(-c3cc(S(=O)(=O)N4CCN(CC)CC4)ccc3OCC)nc21.Cl [B-type polymorphic substance of yonkenafil hydrochloride] [2-[2-ethoxy-5-(4-ethylpiperazine-1-sulfonyl)phenyl]-5-methyl-7-n-propyl-3,7-dihydropyrrolo[2,3-d]pyrimidin-4-one monohydrochloride] | can be converted into the A-type polymorphic substance of yonkenafil hydrochloride
2 | CCCn1cc(C)c2c(=O)[nH]c(-c3cc(S(=O)(=O)N4CCN(CC)CC4)ccc3OCC)nc21.Cl [A-type polymorphic substance of yonkenafil hydrochloride] [2-[2-ethoxy-5-(4-ethylpiperazine-1-sulfonyl)phenyl]-5-methyl-7-n-propyl-3,7-dihydropyrrolo[2,3-d]pyrimidin-4-one monohydrochloride] | more stable than the B-type polymorphic substance of yonkenafil hydrochloride
